Assays:
[1] = tested on: F4/80+CD11b+ macrophages; assay: Macrophage infiltration into white adipose tissue of db/db mice, flow cytometry; assay type: in vivo; settings: day 60
Procedure: Obese db/db mice were fed high-fat diets containing 0, 15, or 70 mg/kg diet rosiglitazone maleate (control, Ros^lo, and Ros^hi, respectively) with and without racemic ABA (100 mg/kg diet). On day 60 the percent of F4/80+CD11b+ in the stromal vascular fractions of abdominal white adipose tissue (Ab. WAT) (A) and subcutaneous WAT (B) were assessed by flow cytometry. The percent of CD11b+CCR2+ monocytes (C) and CD4+CD25+FoxP3+ Tregs (D) in blood were assessed in whole blood. The expressions of the M1 marker CCL17 (E) and peroxisome proliferator activated receptor γ (PPAR γ) (F) in Ab. WAT were calculated as a ratio to the housekeeping gene f3-actin. Data are represented as mean±standard error.
Mice (n=40) were fed one of six experimental diets: a control high-fat diet (control), a high-fat diet containing low dose rosiglitazone maleate (Ros^lo, 10 mg/kg diet), or a high-fat diet containing a high dose of rosiglitazone maleate (Ros^hi, 70 mg/kg diet), each with or without all racemic ABA (100 mg/kg, Sigma Aldrich, St. Louis, Mo.) for 60 days. […] Blood glucose levels were assessed with an ACCU-CHEK® Glucometer (Roche, Indianapolis, Ind.). An intraperitoneal glucose tolerance test (IPGTT, 1 g glucose/kg body weight) was conducted on fasted mice (12 h) for 0, 30, 90, and 180 minute time points and insulin levels were measured on day 54. […]

[2] = Intraperitoneal glucose tolerance test and fasting insulin in db/db mice; assay type: in vivo
Procedure: Obese db/db mice were fed high-fat diets containing […] mg/kg diet rosiglitazone maleate (control, Ros^lo, and Ros^hi, respectively) with and without racemic ABA (100 mg/kg diet). On day 42 mice underwent an intraperitoneal glucose tolerance test (IPGTT) (A). Areas under the curve (B) were calculated for each treatment. On day 55 fasting insulin levels were measured for mice on each diet (C). Data are represented as mean±standard error.
Mice (n=40) were fed one of six experimental diets: a control high-fat diet (control), a high-fat diet containing low dose rosiglitazone maleate (Ros^lo, 10 mg/kg diet), or a high-fat diet containing a high dose of rosiglitazone maleate (Ros^hi, 70 mg/kg diet), each with or without all racemic ABA (100 mg/kg, Sigma Aldrich, St. Louis, Mo.) for 60 days. Mice were weighed and fasting (12 h) blood glucose levels were taken weekly. Blood glucose levels were assessed with an ACCU-CHEK® Glucometer (Roche, Indianapolis, Ind.). An intraperitoneal glucose tolerance test (IPGTT, 1 g glucose/kg body weight) was conducted on fasted mice (12 h) for 0, 30, 90, and 180 minute time points and insulin levels were measured on day 54. On day 60 mice were sacrificed by CO2 narcosis with secondary thoracotomy. Abdominal WAT, inguinal subcutaneous WAT, and liver were then excised and weighed. Abdominal and subcutaneous WAT were then digested and fractionated.

[3] = target: T1, PPAR γ (Mus musculus, UniProt P37238); assay: PPAR γ reporter activity assay in 3T3-L1 preadipocytes; assay type: cell-based; settings: 6 hrs, Ros 1 μM, ABA 10 μM
T1 construct: expressed in transfected cells; host or cells: 3T3-L1 pre-adipocytes
T1 sequence (P37238 31-505 limits assumed): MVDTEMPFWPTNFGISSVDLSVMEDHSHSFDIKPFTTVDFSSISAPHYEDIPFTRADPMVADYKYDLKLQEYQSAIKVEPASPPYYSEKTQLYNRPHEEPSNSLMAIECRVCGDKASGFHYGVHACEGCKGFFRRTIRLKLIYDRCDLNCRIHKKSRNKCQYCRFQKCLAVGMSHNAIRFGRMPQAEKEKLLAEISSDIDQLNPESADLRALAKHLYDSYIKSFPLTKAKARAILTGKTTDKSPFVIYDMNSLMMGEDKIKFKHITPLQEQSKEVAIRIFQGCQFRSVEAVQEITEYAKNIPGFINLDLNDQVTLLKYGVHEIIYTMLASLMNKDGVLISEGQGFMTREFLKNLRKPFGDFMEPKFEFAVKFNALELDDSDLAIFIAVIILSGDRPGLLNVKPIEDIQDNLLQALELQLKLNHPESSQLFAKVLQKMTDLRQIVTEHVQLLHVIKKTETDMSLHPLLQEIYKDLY
Procedure: For 3T3-L1 preadipocytes cells were treated for 6-h with vehicle (DMSO) or Ros (1 μM) with ABA (10 μM), the cAMP-inhibitor 2′5′ dideoxyadenosine (dideoxy, 10 μM), or 14-22 myristolated PKA inhibitor fragment (PKAi, 30 μM). […] Luciferase activity was normalized to pRL activity in the cell extracts and relative luciferase activity was calculated a ratio of the activity in the treatment wells to control wells. Data are represented as mean±standard error.
A pCMX.PPAR γ expression plasmid and a pTKPPRE3x luciferase reporter plasmid driven by the PPRE-containing Acyl-CoA oxidase promoter (kindly provided by Dr. R M. Evans, The Salk Institute, San Diego, Calif.) were purified using Qiagen's Maxi kit (Valencia, Calif.). […] Cells were co-transfected in the […] with 1.5 μg plasmid DNA and 25 ng of pRL reporter control using F-2 transfection reagents (Targeting Systems, Santee, Calif.) according to the manufacturer's protocol. […] Cells were then treated in replicates of 8 with vehicle (DMSO), rosiglitazone (1 or 10 μM; Cayman Chemicals, Arm Arbor, Mich.), or ABA (10 μM; Sigma) with and without 2′5′ dideoxyadenosine (10 μM; Sigma) and 14-22 myristolated PKA inhibitor fragment (PKAi, 30 μM; Sigma). […] Luciferase activity, normalized to pRL activity in the cell extracts was determined by using the Dual Luciferase II reporter assay system (Promega, Madison, Wis.) using a Modulus 96-well luminometer (Turner Biosystems, Sunnyvale, Calif.). All values were normalized to control wells to calculate relative luciferase activity.

CC1=CC(=O)CC(C)(C)C1(O)/C=C/C(C)=C\C(=O)O (racemic) [ABA, abscisic acid]
ATM infiltration in SCAT ([1]; db/db mice fed the control and Ros^lo diets): significantly reduced
macrophage (ATM) infiltration into Ab. WAT ([1]; db/db mice, ABA 100 mg/kg diet, Ros^lo, or both, relative to the control diet): little effect
glucose tolerance (IPGTT) ([2]; day 42, relative to the control diet): significantly improved
fasting insulin levels ([2]; dietary ABA 100 mg/kg diet, P=0.04): significantly reduced
PPAR γ activity [3]: increased

— patent US9119881B2, “Method of synergistically enhancing the therapeutic efficacy and safety of medication through a combination therapy” (priority 2010, dated 2015)
